Patent US20210207070A1, “A CELL CULTURING PLATFORM, A CELL CULTURE SYSTEM, AND A METHOD FOR MODELING NEURAL ACTIVITY IN VITRO” (Tampere University Foundation sr, priority 2018, published 2021)

Tested on: neurons
Experiment: Activity of neurons in the closed-loop cell culturing platform, measured with electrodes in the guiding tunnels
Format: cell-based
Conditions: kainate acid added to the compartment Area 1; FIG. 5c
Text: FIGS. 5a and 5b illustrate activity of neurons in a cell culturing platform according to an exemplifying and non-limiting embodiment. FIG. 5a illustrates signals measured with electrodes in the compartments of the cell culturing platform. The compartments are denoted with references ‘Area 1’, ‘Area 2’, and ‘Area 3’. As shown by black arrows in FIG. 5a, there is synchronous activity in the compartments Area 1, Area 2, and Area 3. […] of the cell culturing platform. The signals measured with electrodes in the guiding tunnels between the compartments Area 2 and Area 3 are denoted with a reference ‘2-3’, the signals measured with electrodes in the guiding tunnels between the compartments Area 1 and Area 2 are denoted with a reference ‘1-2’, and the signals measured with electrodes in the guiding tunnels between the compartments Area 3 and Area 1 are denoted with a reference ‘3-1’. As shown by black arrows in FIG. 5b, there is synchronous activity in the guiding tunnels between different pairs of the compartments.
FIG. 5c illustrates an effect of adding kainate acid to the compartment Area 1.

C=C(C)[C@H]1CN[C@H](C(=O)O)[C@H]1CC(=O)O [kainate acid]
activity measured with electrodes in the guiding tunnels between the compartments Area 1 and Area 2: increases the activity
activity measured with electrodes in the guiding tunnels between the compartments Area 2 and Area 3: substantially on the base level
activity measured with electrodes in the guiding tunnels between the compartments Area 3 and Area 1: increases the activity
